Test results as given in paper PMC8022858, “Discovery of bone morphogenetic protein 7-derived peptide sequences that attenuate the human osteoarthritic chondrocyte phenotype” (Molecular Therapy. Methods & Clinical Development, 2021).

Tested on: primary human OA articular chondrocytes (OA-HACs)
Experiment: BMP7 peptide library screening, quantitative real-time PCR of OA chondrocyte phenotype genes
Assay type: cell-based
Conditions: for expression of SOX9, COL2A1, and NKX3-2 mRNA / expression of RUNX2, COL10A1, ALPL, MMP13, ADAMTS5, COX-2, and IL6 mRNA: 24 h, 1, 10, 100 or 1,000 nM peptide, normalized to 28S rRNA; for expression of SOX9, COL2A1, and NKX3-2 mRNA: relative to control (Figure 2A); for expression of RUNX2, COL10A1, ALPL, MMP13, ADAMTS5, COX-2, and IL6 mRNA: relative to control (Figures 2B, 2C); for concentration range of bioactivity / COL10A1 mRNA expression: 24 h; for concentration range of bioactivity: concentration series 1-1,000 nM; for COL10A1 mRNA expression: pool of 18 OA-HACs, 100 nM peptide, versus control (Figure 1B)
Source text: To investigate whether BMP7 harbors potential peptide sequences that improve the OA chondrocyte phenotype, a peptide library was designed from the mature 139 amino acid-long human BMP7 sequence (Table S2). The peptide library was designed as 20-mer peptides with 2 amino acid intervals (18 amino acid overlap) between individual peptides and with all cysteine residues substituted by serine residues to avoid uncontrolled oxidation of cysteine groups. This yielded 61 individual peptides covering the complete mature human BMP7 sequence (Figure 1A). The peptide library was screened using a pool of primary human OA articular chondrocytes (OA-HACs) from 18 individual donors. Prior to pooling, individual OA-HAC isolates were tested for their responsiveness to BMP7 (Figure S1). The screening was conducted by exposing the OA-HAC pool for 24 h to a concentration series (1, 10, 100, or 1,000 nM) of each peptide from the library. […] This is defined as reduced expression of collagen type X alpha 1 chain (COL10A1), alkaline phosphatase (ALPL), Runt-related transcription factor 2 (RUNX2), ADAMTS5, MMP13, prostaglandin-endoperoxide synthase 2 or cyclooxygenase-2 (COX-2), and interleukin 6 (IL6) and increased expression of SRY-box transcription factor 9 (SOX9), COL2A1, and NKX3-2. […] Representative peptides inducing the above gene expression characteristics in OA-HACs were selected from both regions for further investigation. These were peptide p[63−82] and p[113−132] from the library, covering amino acids 63−82 and 113−132 of the mature BMP7 amino acid sequence. The complete quantitative real-time PCR data for peptides p[63−82] and p[113−132] […] For the two candidate peptides, we validated data using an independent cohort of three OA-HACs exposed to 100 nM of p[63−82] or p[113−132] or a combination of both peptides. […] Taken together, two regions in BMP7 were identified delivering peptide sequences that are able to improve the OA chondrocyte phenotype.
Figure 1 BMP7 peptide library screening on primary human OA articular chondrocytes (OA-HACs) (A) Schematic representation of the design of the human BMP7 peptide library. (B) COL10A1 mRNA expression in samples from the library screening on a pool of 18 OA-HACs individually exposed for 24 h to the peptides (100 nM) in the library. Data are shown as compared to the control condition (white bar) and full-length BMP7 (1 nM; gray bar). The two blue bars represent candidate peptides p[63−82] and p[113−132]. […] Error bars represent mean ± SEM, and statistical significance for peptide condition or BMP7 versus control condition as determined by unpaired two-tailed Student’s t test is represented as ∗p < 0.05, ∗∗p < 0.01, and ∗∗∗p < 0.001; NS, not significant.
Figure 2 Bioactivity of BMP7-derived peptides p[63−82] and p[113−132] on OA-HACs Complete peptide library screening quantitative real-time PCR dataset for peptides p[63−82] and p[113−132] is presented. (A) SOX9, COL2A1, and NKX3-2 mRNA expression in the 18 OA-HAC pool exposed to 1,000, 100, 10, or 1 nM of peptide p[63−82] and p[113−132] is shown and presented relative to control (black bars) and alongside full-length BMP7 (white bars). (B) Similar to (A) but for chondrocyte hypertrophy-associated genes RUNX2, COL10A1, and ALPL. (C) Similar to (A) but for cartilage extracellular matrix remodeling-associated genes MMP13 and ADAMTS5 and inflammation-related genes COX-2 and IL-6. (D) Glycosaminoglycan (GAG) content (normalized to total protein content) on an independent cohort of three individual OA-HAC donors treated with 100 nM peptides p[63−82] and p[113−132] for 24 h. (E) Alkaline phosphatase (ALP) activity (normalized to total protein content) in similar samples from (D). (F) Prostaglandin E2 (PGE2) levels in culture supernatant in similar samples from (D). […]

Question: Which “chondrocyte COX-2, IL-6, and PGE2 levels” value (full-length BMP7 1 nM, OA-HACs) does the source give for “BMP7: full-length recombinant bone morphogenetic protein 7 (R&D Systems), used at 1 nM” here?
Answer: attenuation

Question: How did the “expression of SOX9, COL2A1, and NKX3-2 mRNA” value (pool of 18 OA-HAC donors) turn out when H-AAYYSEGESAFPLNSYMNAT-OH [p[63−82]] was run?
Answer: induced

Question: What about the “expression of RUNX2, COL10A1, ALPL, MMP13, ADAMTS5, COX-2, and IL6 mRNA” value (pool of 18 OA-HAC donors) of the same substance?
Answer: inhibited

Question: And the “concentration range of bioactivity” value (pool of 18 OA-HAC donors)?
Answer: low nanomolar range

Question: What about the “COL10A1 mRNA expression” value of the same substance?
Answer: significantly downregulated

Question: Which “sequence specificity: expression of COL2A1, RUNX2, COL10A1, and COX-2” value (pool of 18 OA-HAC donors, scrambled peptides 100 nM, 24 h (Figure 2G)) does the source give for “H-SEASPAMYYLNATANFYESG-OH [scrambled p[63−82], scrambled version of peptide p[63−82], reference compound]” here?
Answer: neither one of them was able to recapitulate the bioactivity

Question: H-SVLYFDDSSNVILKKYRNMV-OH [p[113−132]] was tested. Which “expression of SOX9, COL2A1, and NKX3-2 mRNA” value (pool of 18 OA-HAC donors) did it give?
Answer: induced

Question: And the “expression of RUNX2, COL10A1, ALPL, MMP13, ADAMTS5, COX-2, and IL6 mRNA” value (pool of 18 OA-HAC donors)?
Answer: inhibited

Question: What about the “concentration range of bioactivity” value (pool of 18 OA-HAC donors) of the same substance?
Answer: low nanomolar range

Question: What about the “COL10A1 mRNA expression” value of the same substance?
Answer: significantly downregulated
